These results are taken from patent US12571794B2, “Epigen AU/11: a natural matrix for restoring homeostasis in cancer cell-infiltrated tissue” (priority 2024, dated 2026).

Structures can show the parent of a compound that is named as a salt. Where two headings read alike, the source gives them in different places.

For data set [1], the system named is explanted biopsies from A431 graft. In words: Ex vivo explanted biopsies, cell viability by flow cytometry (Annexin V). Type of data set: cell-based, human cells grown in immunocompromised mice. Conditions: 72 hours ex vivo; EpigenAU/11 50 mg/ml (pH 5.6), cisplatin 150 μg/ml, HCl to pH 5.6.
Description: Analysis of cell viability in explanted biopsies from the FaDu (9A) and A431 (9B) cell lines was performed after 72 hours of ex vivo treatment. […] Cell viability was analysed using a flow cytometer with the Pacific Blue™ Annexin V/SYTOX™ AADvanced™ Apoptosis Kit, following the manufacturer's instructions. Viability is expressed as a percentage, with untreated controls set at 100%. […] Data are represented as mean±SD; *p<0.03;***p<0.0002.
Analysis of cell viability in explanted biopsies from the A431 cell lines was performed after 72 hours of ex vivo treatment. […] Cell viability was analysed using a flow cytometer with the Pacific Blue™ Annexin V/SYTOX™ AADvanced™ Apoptosis Kit, following the manufacturer's instructions. Viability is expressed as a percentage, with untreated controls set at 100%. […] Data are represented as mean±SD; **p<0.02.
To further substantiate these findings, an ex vivo test was conducted using explanted biopsies from the FaDu and A431 cell lines. These biopsies were generated by injecting the cells into immunocompromised mice, thereby creating a more intricate three-dimensional structure that closely mimics the tumour microenvironment. […] Following the 72-hour treatment period, cell viability was analysed using flow cytometry.
Another data set has as its system A431 xenografts. It counts as in vivo, athymic mice. Conditions: excised at end of 15-day treatment, six mice. Here is the method: Tumour growth curve of A431 xenografts in athymic mice over 15 days of treatment. […] Tumour volume was measured every other day. Data are represented as mean±SEM; **p<0.02; ****p<0.001.
In this trial, athymic mice were subcutaneously injected with 1×10^6 A431 cells into their flank to develop xenograft tumours.

Data set [2] relates to FaDu xenografts. The conditions noted are these: for MITOSIS (amount of mitosis in 2.37 mm^2; 10x): H&E staining of excised tumours. On the procedure:
Tumour growth curve of FaDu xenografts in athymic mice over 27 days of treatment. […] Tumour volume was measured every other day. Data are represented as mean±SEM; *p<0.05; **p<0.02. One-way ANOVA followed by Fisher's LSD test was used for statistical analysis.
In this investigation, an in vivo trial utilizing FaDu cells was performed to explore this interaction.
All treatments commenced when tumours reached a volume of 0.1 cm^3.
The response in mice was evaluated using criteria akin to RECIST 1.1 guidelines.
For this purpose, immunocompromised mice bearing xenografted FaDu head and neck squamous carcinoma cells were included in the study once tumours reached a volume of 100 mm^3.

In data set [3] the test system is non-cancerous spheroids (MSC, HuDe). In words: 3D spheroids toxicity, Cell Titer-Glo 3D (ATP). Type of data set: cell-based, human. The conditions noted are these: 72 hours; EpigenAU/11 0.22 mg/ml, CDDP 15 μg/ml.
Excerpt: Additionally, two 3D spheroids from non-cancerous cell lines were included in the study: • MSC (BM-derived Mesenchymal Stromal Cells): Multipotent stromal cells derived from bone marrow. • HuDe (Human Dermal Fibroblasts): Non-cancerous dermal fibroblast cells.
Data set [4] concerns biopsies derived from the FaDu graft. Briefly: Genome-wide gene expression profiling, ex vivo. Type of data set: cell-based, human. Conditions: 6 hours; EpigenAU/11 50 mg/ml, cisplatin 150 μg/ml, alone and combined.
Data set [5] has as its system FaDu xenografts. Type of data set: in vivo, mice. Set-up: key to Loss of Straightening reflex / Loss of Cleaning / Loss of Curiosity / Loss of Reactivity / Loss of Spontaneous activity: untreated animal value = 0, plus treated animal value. The text has this:
(§1) The risk (intended as side effects) was estimated through the observation of behavioural parameters (impacting the behaviour itself, the locomotor system, muscle strength and nervous reflexes) and through the potential weight loss of the animal.
Data obtained by animal testing, considered in the context of the risk, are behavioural parameters and body weight loss at the end of experimentation.
The behavioural parameters monitored are listed below: • 1. Loss of Spontaneous activity • 2. Loss of Cleaning • 3. Loss of Curiosity • 4. Loss of Reactivity • 5. Loss of Straightening reflex • 6. Loss of Physical strength • 7. Impairment of Palpebral opening • 8. Palpebral reflex • 9. Tremors • 10. Pallor • 11. Stereotypies • 12. Passivity
The values of the parameters 1-8 are normalized as: “Not treated animal value” (always equal to 0)+“Treated animal value”.
The values of the parameters 9-12 are normalized as: “Not treated animal value”-“Treated animal value”.
The potential weight loss of the treated animals was also assessed.” Data were processed using the formula: 1−[“Body weight of treated animals (day of observation: 27)/body weight of untreated animals (day of observation: 19)]
Data were calculated as “Reduction in the size of tumour mass” by the formula: 1−[“Tumour mass size collected from treated animals (day of observation: 27)/Tumour mass size collected from untreated animals (day of observation: 19)]

Data set [6] concerns explanted biopsies from FaDu graft. Type of data set: cell-based, human cells grown in immunocompromised mice. The conditions noted are these: 72 hours ex vivo; EpigenAU/11 50 mg/ml (pH 5.6), cisplatin 150 μg/ml, HCl to pH 5.6.
Description: Analysis of cell viability in explanted biopsies from the FaDu (9A) and A431 (9B) cell lines was performed after 72 hours of ex vivo treatment. […] Cell viability was analysed using a flow cytometer with the Pacific Blue™ Annexin V/SYTOX™ AADvanced™ Apoptosis Kit, following the manufacturer's instructions. Viability is expressed as a percentage, with untreated controls set at 100%. One-way ANOVA analysis followed by Dunnett's test confirmed significant differences among the groups. Data are represented as mean±SD; *p<0.03;***p<0.0002.
(§3) Analysis of cell viability in explanted biopsies from the FaDu cell lines was performed after 72 hours of ex vivo treatment. […] Cell viability was analysed using a flow cytometer with the Pacific Blue™ Annexin V/SYTOX™ AADvanced™ Apoptosis Kit, following the manufacturer's instructions. Viability is expressed as a percentage, with untreated controls set at 100%. […]
as §3
Following the 72-hour treatment period, cell viability was analysed using flow cytometry.
For data set [7], the system named is osteosarcoma spheroids (143B, SaOS-2, U-2 OS). In words: 3D spheroids toxicity, Cell Titer-Glo 3D (ATP). Type of data set: cell-based. Conditions: 72 hours; EpigenAU/11 0.22 mg/ml, CDDP 15 μg/ml. Here is the method: The Cell Titer-Glo® 3D Viability Assay was used to quantify ATP as a marker of cell viability. Results are expressed as the survival ratio (%) between treated cells and their corresponding untreated controls.
In addition to the findings above, several partners contributed to the development of more complex in vitro models, including 3D spheroids, which better mimic the three-dimensional structure of tumours and their microenvironment.
The viability of both control and treated cells was assessed 72 hours after the start of treatment by quantifying ATP levels using the Cell Titer-Glo® 3D Viability Assay following the manufacturer's instructions.

On the set-up of data set [8]: species or system mice. The conditions noted are these: mouse, in vivo. Here is the method:
Furthermore, to better understand the potential systemic toxicity of the treatments, an Irwin test was conducted, evaluating a range of physiological and behavioural parameters, including general behaviour, CNS excitement, movement coordination, muscle tone, reflex responses, and autonomic signs.
Parameters assessed include general behaviour, central nervous system (CNS) excitement, movement coordination, muscle tone, reflex responses, and autonomic signs.
as §1

The subject of data set [9] is bladder tumour organoid Bladder 41. In words: Tumour organoid viability with chemotherapeutics, CellTiter-Glo 3D. The conditions noted are these: Bladder Cancer patient-derived tumour organoids; chemotherapy combined with EpigenAU/11. Type of data set: cell-based, human. On the procedure: (§2) 39A bladder 38, 39B bladder 41, 39C breast 203, 39D Endometrium 12. […] Breast organoids (Breast 203): Treated sequentially with paclitaxel (P, 50 nM)+carboplatin (C, 100 nM) for 72 hours, followed by epirubicin (E, 1 μM)+cyclophosphamide (Cy 7 μM) for an additional 72 hours. Endometrial organoid (Endometrium 12): Treated with carboplatin (C, 100 nM), paclitaxel (P, 100 nM), or their combination for 72 hours. ATP content, measured by CellTiter-Glo® 3D, is expressed as a percentage of cell viability, with untreated controls set at 100%. Statistical analysis was performed using one-way ANOVA followed by Dunnett's test, with significant differences denoted by p<0.002 (**) and p<0.0001 (****). Data are presented as mean±SD.

For data set [10], the system named is Head and Neck Cancer patient-derived tumour organoids. Briefly: EpigenAU/11 combinations with chemotherapeutics on patient-derived tumour organoids (summary table). The conditions noted are these: chemotherapy combined with EpigenAU/11. Type of data set: cell-based.
The subject of data set [11] is FaDu, A431 and HuDe cells. In words: Intracellular pH (pHrodo Green AM). Type of data set: cell-based, human. Conditions: EpigenAU/11 0.66 mg/ml or HCl, one hour. The text has this:
Cells were labelled with pHrodo™ Green AM Intracellular pH Indicator according to manufacturers' instructions. pH values were normalized with respect to cell number, measured by Nuclear Mask Red staining.

For data set [12], the system named is endometrial tumour organoid Endometrium 12. The conditions noted are these: 72 hours; EpigenAU/11 0.66 mg/ml, carboplatin 100 nM, paclitaxel 100 nM. Here is the method:
as §2

As for `N.N.[Cl][Pt][Cl]` [Cisplatin], the cell death entry in data set [1] is given as “around 30%”. The compound further yielded an MEAN tumour mass in the data set with A431 xenografts of 368 mg. Moreover, the tumour progression result in the data set with FaDu xenografts [2] (27 days, cisplatin 2 mg/kg i.p. every two days) is on record as “stabilization of the disease”. Besides, the “MITOSIS (amount of mitosis in 2.37 mm^2; 10x)” value with FaDu xenografts [2] is 14 (±8). Besides, the “MITOSIS (amount of mitosis in 2.37 mm^2; 10x)” value in the data set with FaDu xenografts [2] (listed as cisplatin) is 14. For the same compound, the “Size of tumor masses (Mean)” value with FaDu xenografts [2] (day of observation 27) is on record as 0.50. This compound showed an MEAN tumour mass with FaDu xenografts [2] (explanted after 27 days of treatment, five mice) of 454 mg. Also, in the data set on FaDu xenografts [2] (mouse, in vivo), the “Body weight (Mean)” value is recorded as 29.12. Also, the “viability (ATP levels) of healthy spheroids” value in data set [3] is “indiscriminately killed both cancerous and healthy cells”. The “modulation of cancer-related pathways (gene expression)” value in data set [4] is given as “comparable downregulatory effect across many of the same pathways”. Further, the Weight loss in the data set with FaDu xenografts [5] (1−[body weight treated day 27/untreated day 19]) came out at 0.22. Besides, the “Reduction in the size of tumour mass” value with FaDu xenografts [5] (1−[tumour mass size treated day 27/untreated day 19]) stood at 0.64. Also, in the data set with FaDu xenografts [5] (mouse, in vivo), the “IN VIVO BENEFIT SCORE” value is 0.64. Besides, in the data set on FaDu xenografts [5] (normalised risk parameter), the “Impairment of Palpebral opening” value was found to be 2.00, the “Loss of Cleaning” value is 1.50, the “Loss of Curiosity” value was 1.60 and the “Loss of Palpebral reflex” value was determined as 1.20. Moreover, in the data set with FaDu xenografts [5] (normalised risk parameter), the “Loss of Physical strength” value is given as 1.30, the “Loss of Reactivity” value came to 1.40, the “Loss of Spontaneous activity” value amounted to 1.80 and the “Loss of Straightening reflex” value is 1.40. Also, in the data set on FaDu xenografts [5] (normalised risk parameter), the Pallor was 2.00, the Passivity is 1.10, the Stereotypies came out at 0.00 and the Tremors came to 0.80. For the same compound, in the data set on FaDu xenografts [5] (sum of risk parameters), the “IN VIVO RISK SCORE” value is given as 16. The cell death result in data set [6] is given as “around 25%”. Also, the “viability (ATP levels) of cancerous spheroids” value in data set [7] was “indiscriminately killed both cancerous and healthy cells”. For the same compound, in data set [8], the “reduction in overall biological functions” value is 30-40%. In [9], the “Cooperative Effect with EpigenAU/11” value is on record as “YES”. The “Cooperative Effect with EpigenAU/11” value in data set [10] is “YES”.
As for `Cl` [HCl, hydrochloric acid], the cell death result in data set [1] and in [6] was “no significant signs of cell death” throughout. For the same compound, the “intracellular pH” value in data set [11] is “no observable effects”.
Consider `N.N.O=C([O-])C1(C(=O)[O-])CCC1.[Pt+2]` [carboplatin], for which the “viability (ATP, untreated = 100%)” value in data set [12] was determined as 85.1%.
